Experimental data published in patent US10144730B2, “Inhibitors of c-Jun-N-terminal kinase (JNK)” (Dana-Farber Cancer Institute, Inc., priority 2011, dated 2018).
Read-outs that look alike come from different tables or passages of the source.

Legend:
Format in all cases: cell-based
[1] = test system: phosphorylation of Akt; assay: High-throughput microscopy, phosphorylation of Akt; details: Homo sapiens, A-375, A375 cells, IGF-1 stimulation, read-out: Cellular EC50 pAkt
Description: (§1) A375 cells were stimulated with anisomycin (FIGS. 14A and 14C to 14F), IGF-1 (FIG. 14B), IL-6 (FIG. 14G), and TNF-α (FIG. 14H) for sixty minutes. The output of multiple signaling pathways was measured using high throughput microscopy at multiple concentrations of four JNK inhibitors and a control compound specific to each pathway DMSO (FIG. 14A), MK2206 (allosteric Akt inhibitor, Haoyuan Chemexpress Co., Limited. Hirai, et al., 2010) (FIG. 14B), PD0325901 (allosteric Mek inhibitor, Haoyuan Chemexpress Co., Limited. Barrett, et al., 2008) (FIGS. 14C and 14D), SB239063 (ATP-competitive p38 inhibitor, Haoyuan Chemexpress Co., Limited. Underwood et al., 2000) (FIGS. 14E and 14F), KIN001-040 (ATP-competitive JAK1,2,3 inhibitor, Haoyuan Chemexpress Co., Limited. Thompson et al., 2002) (FIG. 14G), and KIN001-208 (IKK inhibitor VIII, Haoyuan Chemexpress Co., Limited., Murata, et al., 2004) (FIG. 14H).
(§2) Cells were plated at 7500 cells/well in 96-well microscopy plates (Corning) in recommended media for 24 hours, and then starved in media lacking serum for 16 hours. Cells were pre-treated for 180 minutes with 10-fold stock solutions of JNK inhibitors and for 10 min with control compounds MK2206, PD0325901, SB239063, KIN040, and KIN208 and treated with 10-fold stock solutions of IGF-1, IL-6, TNF-α (all PeproTech), or anisomycin for 60 minutes. Cells were fixed in 2% paraformaldehyde for 10 min at room temperature and washed with PBS-T (Phosphate Buffered Saline, 0.1% Tween 20). Cells were permeabilized in methanol for 10 min at room temperature, washed with PBS-T, and blocked in Odyssey Blocking Buffer (LI-COR Biosciences) for 1 hour at room temperature. Cells were incubated overnight at 4° C. with antibody specific for Erk1/2(pT202/pY204), Akt(pS473), c-Jun(pS73), pP38(T180/Y182) and pSTAT3(Y705) (Cell Signaling Technology), pRSK1(S380) and pMSK1(S376) (Epitomics), and NF-κB (Santa Cruz Biotechnology) diluted 1:400 in Odyssey Blocking Buffer. Cells were washed three times in PBS-T and incubated with rabbit-specific secondary antibody labeled with Alexa Fluor 647 (Invitrogen) diluted 1:2000 in Odyssey Blocking Buffer. Cells were washed once in PBS-T and once in PBS and incubated in 250 ng/ml Hoechst 33342 (Invitrogen) and 1:1000 Whole Cell Stain (blue; Thermo Scientific) solution. Cells were washed twice with PBS and imaged in an imageWoRx high-throughput microscope (Applied Precision). Data were plotted using DataPflex. […]

[2] = test system: c-Jun phosphorylation; assay: High throughput microscopy of c-Jun phosphorylation in A375 cells; details: Homo sapiens, A-375
Description: (§3) Cells were fixed in 2% paraformaldehyde for 10 min at room temperature and washed with PBS-T (Phosphate Buffered Saline, 0.1% Tween 20). Cells were permeabilized in methanol for 10 min at room temperature, washed with PBS-T, and blocked in Odyssey Blocking Buffer (LI-COR Biosciences) for 1 hour at room temperature. Cells were incubated overnight at 4° C. with antibody specific for Erk1/2(pT202/pY204), Akt(pS473), c-Jun(pS73), pP38(T180/Y182) and pSTAT3(Y705) (Cell Signaling Technology), pRSK1(S380) and pMSK1(S376) (Epitomics), and NF-κB (Santa Cruz Biotechnology) diluted 1:400 in Odyssey Blocking Buffer. […] Cells were washed twice with PBS and imaged in an imageWoRx high-throughput microscope (Applied Precision). Data were plotted using DataPflex.
In parallel with biochemical evaluation, the ability of the compounds to inhibit JNK activity in cells was investigated using two independent assays formats. This is a critical issue because there are several reported JNK inhibitors with nanomolar biochemical potency that translate into micromolar cellular inhibitors. The most well characterized direct phosphorylation substrate of JNK is the transcription factor c-Jun.

[3] = test system: phosphorylation of Msk1; assay: High-throughput microscopy, phosphorylation of Msk1; details: Homo sapiens, A-375, A375 cells, anisomycin stimulation, read-out: Cellular EC50 pMSK1
Description: A375 cells were stimulated with anisomycin (FIGS. 14A and 14C to 14F), IGF-1 (FIG. 14B), IL-6 (FIG. 14G), and TNF-α (FIG. 14H) for sixty minutes.
as §3

[4] = test system: NF-kB nuclear translocation; assay: High-throughput microscopy, NF-kB nuclear translocation; details: Homo sapiens, A-375, A375 cells, TNF-α stimulation, read-out: Cellular EC50 NF-kB
Description: as §1, §2

[5] = test system: phosphorylation of RSK; assay: High-throughput microscopy, phosphorylation of RSK; details: Homo sapiens, A-375, A375 cells, anisomycin stimulation, read-out: Cellular EC50 pRSK
Description: as §1, §2

[6] = A375 cells, anisomycin stimulation, high-throughput microscopy, Table 4, read-out: Cellular EC50 pc-Jun
[7] = A375 cells, anisomycin stimulation, read-out: p-c-Jun EC50 (nM) A375

Row | SMILES | EC50 [1] [nM] | EC50 [2, 6] [nM] | EC50 [2, 7] [nM] | EC50 ([2]; Table 5, A375, read-out: E50/A375) [nM] | EC50 [3] [nM] | EC50 [4] [nM] | EC50 [5] [nM]
1 | Cc1cc(NC(=O)c2cccc(NC(=O)/C=C/CN(C)C)c2)ccc1Nc1nccc(-c2cccnc2)n1 [JNK-IN-8] | > 10000 | 425 | 338 | 338 | > 10000 | > 10000 | > 10000
2 | CN(C)C/C=C/C(=O)Nc1cccc(C(=O)Nc2ccc(Nc3nccc(/C(C#N)=C4\Nc5ccccc5S4)n3)cc2)c1 [JNK-IN-12] | > 10000 | 125 | 134 | – | > 10000 | > 10000 | > 10000
